Here are results for 14 molecules from ChEMBL document CHEMBL1201862, “PubChem BioAssay data set” (2004).

Test systems include HCC 2998; TK-10; Malme-3M; SNB-75; OVCAR-3; LOX IMVI; SK-OV-3; CAKI-1; SK-MEL-28; KM12; 786-0; UACC-257; OVCAR-4; NCI-H522; SNB-19; A498.
Assay in all cases: growth of human tumour cells (NCI), 48 h

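Compound exposure: 48 hours, 5 concentrations, 96-well plates. The concentration for 50% growth inhibition is given as GI50.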 Active and inactive are the calls of the source. Cut-off read from the data, not from the text of the source: active = GI50 up to about 1.1 µM and inactive = higher.

In the case of `Oc1cccc(-c2cccc(O)n2)n1`, the GI50 with HCC 2998, in the experiment on TK-10, with Malme-3M, in the experiment with SNB-75, with OVCAR-3 and with LOX IMVI was > 100 µM (inactive) in each case. For the same molecule, the GI50 in the experiment on SK-OV-3, in the experiment with CAKI-1, in the experiment on SK-MEL-28, with KM12, with 786-0 and in the experiment on UACC-257 was > 100 µM (inactive) throughout.

For the molecule `COc1ccc(/N=c2\ssc3c(=S)ssc23)cc1`, the GI50 with HCC 2998 was 37.2 µM (inactive); in the experiment on TK-10 it was 57.9 µM (inactive); with Malme-3M, 34.9 µM (inactive); in the experiment on SNB-75, 19.4 µM (inactive); with OVCAR-4, 34.9 µM (inactive); with OVCAR-3, 25.2 µM (inactive). Also, the GI50 is 15.7 µM (inactive) in the experiment with LOX IMVI; > 100 µM (inactive) in the experiment with SK-OV-3; 91.4 µM (inactive) with CAKI-1; 25.3 µM (inactive) with SK-MEL-28; 62.7 µM (inactive) in the experiment with KM12; 34.1 µM (inactive) in the experiment with 786-0. The GI50 was 13.9 µM (inactive) in the experiment on NCI-H522 and > 10 µM (inactive) in the experiment on UACC-257.

`Cc1cc(C)c2c(c1)Nc1ccccc1P2c1ccccc1` (stereo not given): the GI50 in the experiment on HCC 2998 is 26.6 µM (inactive); with TK-10, 40.2 µM (inactive); in the experiment with Malme-3M it was 24.5 µM (inactive); in the experiment with SNB-75 it was 23.7 µM (inactive); in the experiment with OVCAR-4, 26.9 µM (inactive); in the experiment with OVCAR-3 it was 24.6 µM (inactive). Moreover, the GI50 with LOX IMVI is 27.2 µM (inactive); with SK-OV-3, > 100 µM (inactive); in the experiment on SNB-19, 26.7 µM (inactive); in the experiment on CAKI-1, 11 µM (inactive); in the experiment with SK-MEL-28, 44.1 µM (inactive); with 786-0, 36.5 µM (inactive).

For `COC(=O)n1c(CBr)c(Br)c2ccccc21`, the GI50 with HCC 2998 was 32.6 µM (inactive); with TK-10, 33.1 µM (inactive); with Malme-3M it was 79.6 µM (inactive); in the experiment with SNB-75, 10.8 µM (inactive); in the experiment with OVCAR-4 it was 25.8 µM (inactive); in the experiment on OVCAR-3 it was 20.3 µM (inactive). The GI50 in the experiment on SNB-19 was 44.9 µM (inactive); in the experiment on CAKI-1, 23.8 µM (inactive); with SK-MEL-28, > 100 µM (inactive); with KM12, 42.9 µM (inactive); in the experiment with 786-0 it was 45 µM (inactive); with NCI-H522, 17.2 µM (inactive). The GI50 with UACC-257 is 39.2 µM (inactive).

For `NCCCCC(=O)c1cccnc1`, the GI50 in the experiment on TK-10, in the experiment with Malme-3M, with OVCAR-3, with LOX IMVI, in the experiment with SK-OV-3 and in the experiment on SNB-19 was > 100 µM (inactive) throughout. The GI50 in the experiment with CAKI-1, with SK-MEL-28, in the experiment on A498, in the experiment on KM12, in the experiment with 786-0 and with NCI-H522 was > 100 µM (inactive) throughout. Also, the GI50 with UACC-257 is > 100 µM (inactive).

Turning to `O=c1c(Cl)c(Cl)cnn1CCc1ccncc1`, the GI50 in the experiment on HCC 2998 is 14.5 µM (inactive); in the experiment on TK-10, 47.5 µM (inactive); in the experiment with Malme-3M, 22 µM (inactive); in the experiment on SNB-75 it was 16.6 µM (inactive); in the experiment on OVCAR-4, 18.6 µM (inactive); with OVCAR-3 it was 17.6 µM (inactive). The GI50 was 17.8 µM (inactive) in the experiment with LOX IMVI; 15.6 µM (inactive) with SNB-19; 1.98 µM (inactive) with CAKI-1; 16.4 µM (inactive) in the experiment on SK-MEL-28; 21.6 µM (inactive) with A498; 12.5 µM (inactive) with KM12. For the same molecule, the GI50 is 19.6 µM (inactive) with 786-0 and 17.7 µM (inactive) in the experiment on UACC-257.

In the case of `CC(C)(CN1CCCCC1)C(=O)/C=C/c1ccc(Cl)cc1`, the GI50 in the experiment with HCC 2998 was 13.2 µM (inactive); in the experiment on TK-10 it was 15.3 µM (inactive); in the experiment with Malme-3M it was 5.06 µM (inactive); in the experiment with SNB-75 it was 2.44 µM (inactive); in the experiment with OVCAR-4 it was 4.27 µM (inactive); in the experiment with OVCAR-3, 2.77 µM (inactive). Moreover, the GI50 is 2.84 µM (inactive) in the experiment with LOX IMVI; 11.2 µM (inactive) in the experiment on SK-OV-3; 5.15 µM (inactive) with SNB-19; 8.17 µM (inactive) with SK-MEL-28; 2.73 µM (inactive) with A498; 2.95 µM (inactive) with KM12. Moreover, the GI50 in the experiment on 786-0 was 2.72 µM (inactive); with NCI-H522 it was 2.73 µM (inactive); in the experiment with UACC-257 it was 6.4 µM (inactive).

On to `CCCCCCCCCCCCCCCCCC(=O)OCC(C[As](=O)(O)O)OC(=O)CCCCCCCCCCCCCCCCC` (stereo not given), for which the GI50 is > 100 µM (inactive) in the experiment with HCC 2998; 33.4 µM (inactive) in the experiment on TK-10; 30.1 µM (inactive) in the experiment on Malme-3M; 29.4 µM (inactive) with SNB-75; > 100 µM (inactive) in the experiment with OVCAR-4; 60.4 µM (inactive) in the experiment on OVCAR-3. Further, the GI50 in the experiment with SK-OV-3 is 18.2 µM (inactive); in the experiment on SNB-19, 20.2 µM (inactive); with CAKI-1, 65.5 µM (inactive); with SK-MEL-28, > 100 µM (inactive); with A498, > 100 µM (inactive); in the experiment with KM12 it was > 100 µM (inactive). Further, the figures for the GI50 with 786-0, with NCI-H522 and with UACC-257 were 27.2 µM (inactive), 33.1 µM (inactive) and > 100 µM (inactive), respectively.

For the molecule `CC(C)C1(O)C(c2ccccc2)=C(c2ccccc2)C(c2ccccc2)=C1c1ccccc1`, the GI50 with HCC 2998 is 8.69 µM (inactive); with TK-10, 5.74 µM (inactive); in the experiment on Malme-3M it was 10.4 µM (inactive); in the experiment with SNB-75 it was 12.3 µM (inactive); in the experiment with OVCAR-4, 5.73 µM (inactive); with OVCAR-3, 4.71 µM (inactive). Besides, the GI50 with LOX IMVI is 6.59 µM (inactive); with SK-OV-3 it was 15.2 µM (inactive); with SNB-19, 21.8 µM (inactive); with CAKI-1 it was 11.7 µM (inactive); in the experiment on A498, 15.2 µM (inactive); in the experiment with KM12, 4.9 µM (inactive). For the same molecule, the GI50 in the experiment on 786-0 is 5.78 µM (inactive); in the experiment with NCI-H522 it was 4.35 µM (inactive); in the experiment on UACC-257 it was 5.36 µM (inactive).

Regarding `C/C(=N/NS(=O)(=O)c1ccccc1)c1cccc[n+]1[O-]`, the GI50 in the experiment on HCC 2998, in the experiment with TK-10, in the experiment with SNB-75, with OVCAR-4, with OVCAR-3 and in the experiment with SK-OV-3 was > 100 µM (inactive) in each case. The GI50 in the experiment on SNB-19, in the experiment on CAKI-1, in the experiment with SK-MEL-28, in the experiment with A498, in the experiment on KM12 and in the experiment with 786-0 was > 100 µM (inactive) throughout. The GI50 in the experiment on NCI-H522 and in the experiment with UACC-257 was > 100 µM (inactive) throughout.

Regarding `CCOC(=O)CC[C@@H](NC(=O)c1ccc(N[C@@H]2c3cc4c(cc3C(c3cc(OC)c(O)c(OC)c3)C3C(=O)OC[C@@H]32)OCO4)cc1)C(=O)OCC` (stereo not given in full), the GI50 was 0.136 µM (active) in the experiment on HCC 2998; 0.11 µM (active) in the experiment with TK-10; 0.0995 µM (active) in the experiment on Malme-3M; 0.0787 µM (active) in the experiment with SNB-75; 0.143 µM (active) in the experiment with OVCAR-3; 0.0205 µM (active) with LOX IMVI. For the same molecule, the GI50 with SK-OV-3 is 0.0144 µM (active); in the experiment on SNB-19, 0.0197 µM (active); in the experiment with CAKI-1, 0.013 µM (active); in the experiment with SK-MEL-28, 0.2 µM (active); in the experiment with A498, 0.0129 µM (active); in the experiment with KM12 it was 0.0322 µM (active). The results for the GI50 in the experiment on 786-0, in the experiment on NCI-H522 and in the experiment with UACC-257 were 3.85 µM (inactive), 0.0975 µM (active) and 0.13 µM (active), respectively.

Turning to `COC1=NN2C(OC)(c3ccccc3)c3c(-c4ccccc4)sc(-c4ccccc4)c3C2(c2ccccc2)S1` (stereo not given), the GI50 in the experiment with HCC 2998 was > 100 µM (inactive); with TK-10 it was > 100 µM (inactive); in the experiment with Malme-3M, > 100 µM (inactive); with SNB-75 it was > 100 µM (inactive); in the experiment with OVCAR-3, > 10 µM (inactive); with LOX IMVI it was > 100 µM (inactive). Also, the GI50 in the experiment with SK-OV-3, with SNB-19, in the experiment on CAKI-1, in the experiment on SK-MEL-28, with A498 and in the experiment with KM12 was > 100 µM (inactive) in each case. Besides, the GI50 in the experiment with 786-0, with NCI-H522 and in the experiment on UACC-257 was > 100 µM (inactive) throughout.

For `CC1O[C@@H]2CCCCC(=O)[C@]2(C)[C@H]1C` (stereo not given in full), the GI50 in the experiment on HCC 2998, in the experiment on TK-10, in the experiment on Malme-3M, with SNB-75, in the experiment with OVCAR-4 and in the experiment on OVCAR-3 was > 100 µM (inactive) each time. Besides, the GI50 in the experiment with LOX IMVI, with SK-OV-3, in the experiment on SNB-19, in the experiment on CAKI-1, with SK-MEL-28 and in the experiment on KM12 was > 100 µM (inactive) in each case. Further, the GI50 in the experiment with 786-0 and in the experiment on UACC-257 was > 100 µM (inactive) throughout.

As for `C[n+]1ccc(-c2cc[n+](C)cc2)cc1` [PARAQUAT DICHLORIDE], the GI50 in the experiment on HCC 2998 is 14.5 µM (inactive); with TK-10, > 53.6 µM (inactive); in the experiment with Malme-3M, 0.265 µM (active); in the experiment with SNB-75, 33.5 µM (inactive); in the experiment on OVCAR-4, 1.55 µM (inactive); in the experiment on OVCAR-3, 14 µM (inactive). Further, the GI50 was > 22.9 µM (inactive) with LOX IMVI; > 24.7 µM (inactive) in the experiment with SK-OV-3; 4.99 µM (inactive) in the experiment with SNB-19; > 100 µM (inactive) with CAKI-1; > 32.6 µM (inactive) with A498; 5.83 µM (inactive) in the experiment with KM12. Besides, the GI50 in the experiment on 786-0 is > 100 µM (inactive); in the experiment on UACC-257, 1.5 µM (inactive).
